The record followed here is patent US8653092B2, “Tetrahydro-pyrido-pyrimidine derivatives” (Novartis AG, priority 2010, dated 2014).

Like-named read-outs stand apart in the source and are kept apart here.

In test [1] the target is human phosphoinositide-3 kinase (PI3K) delta (Homo sapiens (Human), UniProt O00329). Briefly: PI3K-mediated Akt 1/2 (S473) phosphorylation in Rat-1 cells (AlphaScreen SureFire). The format is cell-based. As to conditions: Rat-1 cells overexpressing myristoylated human PI3K delta, p-Akt (Ser473); read-out: Cell PI3Kδ/ IC50 [umol l − 1]. As to the method:
Rat-1 cells stably overexpressing a myristoylated form of the catalytic subunit of human phosphoinositide-3 kinase (PI3K) alpha, beta or delta were plated in 384-well plates at a density of 7500 (PI3K alpha), 6200 (PI3K beta), or 4000 (PI3K delta) cells in 30 ul complete growth medium (Dulbecco's modified Eagle's medium (DMEM high glucose) supplemented with 10% (v/v) fetal bovine serum, 1% (v/v) MEM non essential amino acids, 10 mM HEPES, 2 mM L-glutamine, 10 μg/mL puromycin and 1% (v/v) Penicillin/Streptomycin) and were incubated at […]/5% CO2/95% humidity for 24 h. Compounds were diluted in 384-well compound plates to obtain 8-point serial dilutions for 40 test compounds in 90% DMSO, as well as 4 reference compounds plus 16 high controls and 16 low (inhibited) controls. Predilution plates were prepared by dispensing pipetting 250 nl of compound solutions into 384-well polypropylen plates using a Hummingwell nanoliter dispensor. Compounds were prediluted by the addition of 49.75 ul complete growth medium. 10 ul of prediluted compound solution were transferred to the cell plate using a 384-well pipettor, resulting in a final DMSO concentration of 0.11%. Cells were incubated for 1 h at […]/5% CO2/95% humidity. The supernatant was removed, the cells were lysed in 20 ul of lysis buffer for AlphaScreen® SureFire® detection.
For detection of p-AKT (Ser473), the SureFire® p-Akt 1/2 (Ser473) Assay Kit (PerkinElmer, U.S.A) was used. 5 ul of cell lysate was transferred to 384-well low volume Proxiplates for detection using a 384-well pipettor. Addition of AlphaScreen® SureFire® reagents was done according to the manufacturer's protocol. First, 5 ul of reaction buffer plus activation buffer mix containing AlphaScreen® acceptor beads was added, the plate was sealed, and incubated on a plate shaker for 2 hours at room temperature. Second, 2 ul of dilution buffer containing AlphaScreen® donor beads was added, and the plate was incubated on plate shaker as above for a further 2 hours. The plate was read on an AlphaScreen® compatible plate reader, using standard AlphaScreen® settings.

The test system of test [2] is murine B cells. The test is described as follows: Murine B cell activation: CD86 upregulation after anti-IgM stimulation. The format is cell-based, mouse. To be noted: Balb/c mouse splenocytes, anti-IgM 24 h, CD86 on CD19+ B cells, read-out: mCD86/IC50 CD86 [nmol l − 1]. As to the method: Spleens from Balb/c mice were collected, splenocytes were isolated and washed twice with RPMI containing 10% foetal bovine serum (FBS), 10 mM HEPES, 100 Units/mL penicilline/streptomycine. RPMI supplemented in this way is subsequently referred to as medium. The cells were adjusted to 2.5×10^6 cells/mL in medium and 200 μl cell suspension (5×10^6 cells) were added to the appropriate wells of 96 well plates.
Then the cells were stimulated by adding 50 μl anti-IgM mAb in medium (final concentration: 30 μg/mL). After incubation for 24 hours at 37° C., the cells were stained with the following antibody cocktails: anti-mouse CD86-FITC, anti-mouse CD69-PerCP-Cy5.5, anti-mouse CD19-PerCP for the assessment of B cells, and anti-mouse CD3-FITC, anti-mouse CD69-PE for the assessment of T cells (2 μl of each antibody/well). After one hour at room temperature (RT) in the dark the cells were transferred to 96 Deepwell plates. The cells were washed once with 1 mL PBS containing 2% FBS and after re-suspension in 200 μl the samples were analyzed on a FACS Calibur flow cytometer. Lymphocytes were gated in the FSC/SSC dot plot according to size and granularity and further analyzed for expression of CD19, CD3 and activation markers (CD86, CD69). Data were calculated from dot blots as percentage of cells positively stained for activation markers within the CD19+ or CD3+ population using BD CellQest Software.
For assessing the inhibitory property of compounds, compounds were first dissolved and diluted in DMSO followed by a 1:50 dilution in medium. Splenocytes from Balb/c mice were isolated, re-suspended and transfered to 96 well plates as described above (200 μl/well). The diluted compounds or solvent were added to the plates (25 μl) and incubated at 37° C. for 1 hour. Then the cultures were stimulated with 25 μl anti-IgM mAb/well (final concentration […]) for 24 hours at 37° C. and stained with anti-mouse CD86-FITC and anti-mouse CD19-PerCP (2 μl of each antibody/well). CD86 expression on CD19 positive B cells was quantified by flow cytometry as described above.

In test [3] the test system is antibody production to sheep red blood cells (SRBC). Briefly: Antibody production to sheep red blood cells (SRBC), plaque forming assay. It counts as in vivo, rat. To be noted: OFA rats, 10 mg/kg bid orally d0-d3, spleens on d4. As to the method:
In brief, OFA rats were injected i.v. with sheep erythrocytes on d0 and treated orally on four consecutive days (d0 to d3) with the compounds under investigation. Spleen cell suspensions were prepared on d4 and lymphocytes were plated onto soft agar in presence of indicator cells (SRBC) and complement. Lysis of the indicator cells due to secretion of SRBC-specific antibody (predominantly of the IgM subclass) and presence of complement yielded plaques. The number of plaques per plate were counted and expressed as number of plaques per spleen.
Immunization: Groups of five female OFA rats were immunized on day 0 with 2×10^8/ml SRBC (obtained from Laboratory Animal Services LAS, Novartis Pharma AG) in a volume of 0.5 ml per rat by i.v. injection. […]
On day 4, animals were euthanized with CO2 Spleens were removed, weighed, and deposited in plastic tubes containing 10 ml of cold (4° C.) Hank's balanced salt solution (HBSS; Gibco, pH 7.3, containing 1 mg Phenolred/100 ml) for each rat spleen. […] Lymphocyte numbers per spleen were determined by automated cell counter and spleen cell suspensions were adjusted to a cell concentration of 30×10^6/ml. […]
In addition, one ml of 0.7% agarose was prepared in plastic tubes and kept at 48° C. in a water bath. […] Plaques were counted with a microscope. […]

The target of test [4] is PI3K delta (Homo sapiens (Human), UniProt O00329). The test is described as follows: Enzymatic PI3K delta isoform inhibition (lipid kinase, Kinase-Glo luminescence). The format is biochemical. As to conditions: enzymatic assay.
For test [5], the target named is PI3K alpha (Homo sapiens (Human), UniProt P42336). The test is described as follows: Enzymatic PI3K alpha isoform inhibition (lipid kinase, Kinase-Glo luminescence). It counts as biochemical.
Chain of PI3K alpha (P42336 other isoform, or with tags, fused parts or gaps): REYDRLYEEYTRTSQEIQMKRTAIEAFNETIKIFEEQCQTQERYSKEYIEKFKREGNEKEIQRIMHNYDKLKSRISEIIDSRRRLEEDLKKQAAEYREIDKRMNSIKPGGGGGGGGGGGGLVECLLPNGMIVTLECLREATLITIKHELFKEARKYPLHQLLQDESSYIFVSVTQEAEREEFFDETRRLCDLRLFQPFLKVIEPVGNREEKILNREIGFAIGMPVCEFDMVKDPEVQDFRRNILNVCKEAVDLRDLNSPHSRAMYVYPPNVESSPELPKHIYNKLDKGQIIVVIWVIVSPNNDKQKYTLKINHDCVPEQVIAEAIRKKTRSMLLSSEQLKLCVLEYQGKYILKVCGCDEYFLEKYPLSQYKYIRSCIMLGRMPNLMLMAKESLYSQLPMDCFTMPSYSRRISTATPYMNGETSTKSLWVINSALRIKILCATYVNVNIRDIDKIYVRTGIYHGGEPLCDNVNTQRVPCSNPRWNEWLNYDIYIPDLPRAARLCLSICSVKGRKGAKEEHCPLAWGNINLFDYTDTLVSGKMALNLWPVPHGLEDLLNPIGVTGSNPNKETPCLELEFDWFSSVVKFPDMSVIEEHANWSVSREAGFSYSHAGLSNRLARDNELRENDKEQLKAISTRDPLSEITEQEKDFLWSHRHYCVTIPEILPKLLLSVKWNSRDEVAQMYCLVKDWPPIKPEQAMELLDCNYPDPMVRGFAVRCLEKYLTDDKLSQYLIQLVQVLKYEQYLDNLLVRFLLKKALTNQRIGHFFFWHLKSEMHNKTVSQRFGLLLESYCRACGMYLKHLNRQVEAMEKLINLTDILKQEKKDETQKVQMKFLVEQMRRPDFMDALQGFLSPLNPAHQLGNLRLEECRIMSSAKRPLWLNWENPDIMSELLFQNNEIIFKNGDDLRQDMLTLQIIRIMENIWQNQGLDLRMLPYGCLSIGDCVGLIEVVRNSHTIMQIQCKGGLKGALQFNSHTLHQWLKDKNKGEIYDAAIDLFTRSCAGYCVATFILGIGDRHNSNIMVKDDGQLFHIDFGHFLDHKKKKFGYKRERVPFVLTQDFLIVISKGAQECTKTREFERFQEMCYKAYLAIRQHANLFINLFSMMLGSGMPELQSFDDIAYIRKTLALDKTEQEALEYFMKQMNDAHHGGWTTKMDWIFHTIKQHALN

Chain of PI3K delta (O00329 other isoform, or with tags, fused parts or gaps linker GGGGGG): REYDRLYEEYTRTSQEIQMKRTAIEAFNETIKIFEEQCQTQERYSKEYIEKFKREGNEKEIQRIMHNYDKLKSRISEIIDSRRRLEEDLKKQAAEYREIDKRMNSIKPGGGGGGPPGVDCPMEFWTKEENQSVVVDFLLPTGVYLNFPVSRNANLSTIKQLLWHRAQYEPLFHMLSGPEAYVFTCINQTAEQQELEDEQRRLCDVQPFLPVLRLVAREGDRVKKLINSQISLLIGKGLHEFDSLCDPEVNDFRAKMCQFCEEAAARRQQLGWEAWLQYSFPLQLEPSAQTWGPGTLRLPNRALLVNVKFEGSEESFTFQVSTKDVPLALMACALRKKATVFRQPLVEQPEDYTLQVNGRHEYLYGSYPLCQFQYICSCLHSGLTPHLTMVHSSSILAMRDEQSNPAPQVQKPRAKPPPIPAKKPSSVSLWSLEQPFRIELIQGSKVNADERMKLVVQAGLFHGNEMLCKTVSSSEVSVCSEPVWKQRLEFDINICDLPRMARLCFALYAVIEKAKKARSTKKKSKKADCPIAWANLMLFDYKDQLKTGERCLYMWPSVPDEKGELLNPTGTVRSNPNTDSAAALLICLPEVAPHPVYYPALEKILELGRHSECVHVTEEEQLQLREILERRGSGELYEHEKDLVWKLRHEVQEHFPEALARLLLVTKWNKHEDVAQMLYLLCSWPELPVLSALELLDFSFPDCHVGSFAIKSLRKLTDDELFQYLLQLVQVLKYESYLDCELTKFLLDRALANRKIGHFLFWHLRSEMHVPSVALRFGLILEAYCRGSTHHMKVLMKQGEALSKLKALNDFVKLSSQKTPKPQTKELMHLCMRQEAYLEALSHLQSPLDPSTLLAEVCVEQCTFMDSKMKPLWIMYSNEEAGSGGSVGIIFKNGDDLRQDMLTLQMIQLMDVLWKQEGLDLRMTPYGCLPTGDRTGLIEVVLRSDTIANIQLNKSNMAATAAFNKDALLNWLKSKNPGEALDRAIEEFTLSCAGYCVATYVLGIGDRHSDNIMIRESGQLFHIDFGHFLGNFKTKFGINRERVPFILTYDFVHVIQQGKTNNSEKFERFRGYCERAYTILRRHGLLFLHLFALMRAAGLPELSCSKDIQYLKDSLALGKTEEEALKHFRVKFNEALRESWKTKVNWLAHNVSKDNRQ
Chain of human phosphoinositide-3 kinase (PI3K) delta (O00329 whole entry): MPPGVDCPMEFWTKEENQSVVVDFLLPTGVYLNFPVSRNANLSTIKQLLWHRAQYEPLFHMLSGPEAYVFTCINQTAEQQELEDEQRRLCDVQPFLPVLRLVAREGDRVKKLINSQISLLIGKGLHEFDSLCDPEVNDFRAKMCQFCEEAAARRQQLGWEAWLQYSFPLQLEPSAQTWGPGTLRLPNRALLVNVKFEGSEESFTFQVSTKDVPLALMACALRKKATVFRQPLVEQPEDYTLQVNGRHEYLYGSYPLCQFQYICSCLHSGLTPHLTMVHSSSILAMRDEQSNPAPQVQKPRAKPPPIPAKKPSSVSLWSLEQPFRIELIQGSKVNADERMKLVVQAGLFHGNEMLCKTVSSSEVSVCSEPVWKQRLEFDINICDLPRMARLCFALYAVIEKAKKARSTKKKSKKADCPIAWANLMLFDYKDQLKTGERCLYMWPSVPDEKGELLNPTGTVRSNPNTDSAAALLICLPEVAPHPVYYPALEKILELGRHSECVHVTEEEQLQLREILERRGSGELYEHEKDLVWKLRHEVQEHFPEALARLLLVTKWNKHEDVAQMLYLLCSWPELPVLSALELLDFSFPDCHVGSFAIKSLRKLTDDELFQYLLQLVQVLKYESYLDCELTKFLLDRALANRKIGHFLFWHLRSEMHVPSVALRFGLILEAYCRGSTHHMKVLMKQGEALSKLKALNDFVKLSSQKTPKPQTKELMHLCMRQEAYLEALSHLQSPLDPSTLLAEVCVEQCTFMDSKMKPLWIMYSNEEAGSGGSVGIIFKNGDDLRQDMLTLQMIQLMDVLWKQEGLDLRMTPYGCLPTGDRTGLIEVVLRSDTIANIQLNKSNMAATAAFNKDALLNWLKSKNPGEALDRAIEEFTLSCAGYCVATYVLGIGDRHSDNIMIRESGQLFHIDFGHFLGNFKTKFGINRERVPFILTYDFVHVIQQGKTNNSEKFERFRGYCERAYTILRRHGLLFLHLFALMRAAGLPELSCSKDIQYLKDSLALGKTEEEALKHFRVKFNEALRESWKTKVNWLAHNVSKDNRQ
Chain of human phosphoinositide-3 kinase (PI3K) delta (Q63787 whole entry partner): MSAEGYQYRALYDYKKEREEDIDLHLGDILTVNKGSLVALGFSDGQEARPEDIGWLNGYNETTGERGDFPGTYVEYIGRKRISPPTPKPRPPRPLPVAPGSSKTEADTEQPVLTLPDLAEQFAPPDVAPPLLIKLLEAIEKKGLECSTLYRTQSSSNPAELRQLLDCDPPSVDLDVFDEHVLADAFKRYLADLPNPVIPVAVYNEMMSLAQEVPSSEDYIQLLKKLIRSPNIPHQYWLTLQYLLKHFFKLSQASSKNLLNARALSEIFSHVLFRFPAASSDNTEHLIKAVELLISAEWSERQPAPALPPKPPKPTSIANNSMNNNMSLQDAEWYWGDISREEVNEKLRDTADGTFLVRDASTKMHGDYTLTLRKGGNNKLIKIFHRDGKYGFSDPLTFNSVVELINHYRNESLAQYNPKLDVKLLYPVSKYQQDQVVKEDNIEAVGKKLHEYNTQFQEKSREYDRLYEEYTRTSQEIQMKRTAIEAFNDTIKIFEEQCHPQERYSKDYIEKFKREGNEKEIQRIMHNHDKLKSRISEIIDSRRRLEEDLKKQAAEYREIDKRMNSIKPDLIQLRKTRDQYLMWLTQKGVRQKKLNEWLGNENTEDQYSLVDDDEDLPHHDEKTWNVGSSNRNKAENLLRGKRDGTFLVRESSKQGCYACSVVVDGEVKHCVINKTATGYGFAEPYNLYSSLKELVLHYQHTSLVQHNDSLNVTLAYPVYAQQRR

Regarding `COc1ncc(N2CCc3ncnc(O[C@H]4CCN(C(=O)C5CCOCC5)C4)c3C2)cc1C` [Example 1, {(S)-3-[6-(6-Methoxy-5-methyl-pyridin-3-yl)-5,6,7,8-tetrahydro-pyrido[4,3-d]pyrimidin-4-yloxy]-pyrrolidin-1-yl}-(tetrahydro-pyran-4-yl)-methanone], the IC50 was 0.153 µM in test [1] and 0.0949 µM in test [2]. In test [3], this molecule showed a Plaques/spleen of 12608 ± 4986.
As for `CCC(=O)N1CC[C@H](Nc2ncnc3c2CN(c2cnc(OC)c(C)c2)CC3)C1` [Example 81, 1-{(S)-3-[6-(6-Methoxy-5-methyl-pyridin-3-yl)-5,6,7,8-tetrahydro-pyrido[4,3-d]pyrimidin-4-ylamino]-pyrrolidin-1-yl}-propan-1-one], the IC50 stood at 0.246 µM in test [1], 0.02 µM in test [4], 0.651 µM in test [5] (enzymatic assay) and 0.0865 µM in test [2].
Turning to `COc1ncc(N2CCc3ncnc(N[C@H]4CCN(C(=O)C5CCOC(C)(C)C5)C4)c3C2)cc1C(F)(F)F` (stereo partly drawn) [Example 71, (2,2-Dimethyl-tetrahydro-pyran-4-yl)-{(S)-3-[6-(6-methoxy-5-trifluoromethyl-pyridin-3-yl)-5,6,7,8-tetrahydro-pyrido[4,3-d]pyrimidin-4-ylamino]-pyrrolidin-1-yl}-methanone], the IC50 came out at 0.035 µM in test [1], 0.003 µM in test [4], 0.057 µM in test [5] and 0.0247 µM in test [2].
For the molecule `COc1cc(N2CCc3ncnc(O[C@H]4CCN(C(=O)C5CCOCC5)C4)c3C2)cnc1OC` [Example 5, {(S)-3-[6-(5,6-Dimethoxy-pyridin-3-yl)-5,6,7,8-tetrahydro-pyrido[4,3-d]pyrimidin-4-yloxy]-pyrrolidin-1-yl}-(tetrahydro-pyran-4-yl)-methanone], the IC50 in test [1] is 0.455 µM; in test [4] it was 0.02 µM; in test [5] (enzymatic assay), 0.749 µM; in test [2] it was 0.125 µM.
Regarding `COc1ncc(N2CCc3ncnc(O[C@H]4CCN(C(=O)c5cn(C)cn5)C4)c3C2)cc1C` [Example 20, {(S)-3-[6-(6-Methoxy-5-methyl-pyridin-3-yl)-5,6,7,8-tetrahydro-pyrido[4,3-d]pyrimidin-4-yloxy]-pyrrolidin-1-yl}-(1-methyl-1H-imidazol-4-yl)-methanone], the IC50 in test [1] came to 0.254 µM; in test [4], 0.048 µM; in test [5] (enzymatic assay), 1.84 µM; in test [2], 0.12 µM.
Turning to `COc1ncc(N2CCc3ncnc(O[C@H]4CCN(C(=O)c5oc(C)nc5C)C4)c3C2)cc1C#N` [Example 28, 5-{4-[(S)-1-(2,4-Dimethyl-oxazole-5-carbonyl)-pyrrolidin-3-yloxy]-7,8-dihydro-5H-pyrido[4,3-d]pyrimidin-6-yl}-2-methoxy-nicotinonitrile], the IC50 in test [1] amounted to 0.268 µM; in test [4], 0.004 µM; in test [5] (enzymatic assay), 1.21 µM; in test [2], 0.0716 µM.
